The values below are quoted from earlier work in patent publication US6740653B2, “Shelf life extension of microemulsions containing active aza biocide” (ISP Investments Inc., priority 2001, dated 2004).

On to `Cc1ccc(/N=C/N(C)/C=N/c2ccc(C)cc2C)c(C)c1` [Amitraz], for which the soluble in water was 1 mg/L.
